One may read the melting point as the temperature of the solid-liquid transition. `CCc1ccc(Nc2nc3cc(NC(=O)c4ccc(OC)c(OC)c4)ccc3o2)cc1` gave a melting point of over 250 °C.
In the case of `CN1CCN(Cc2nnc(-c3ccccc3)cc2-c2cccc([N+](=O)[O-])c2)CC1` it was 157 to 159 °C; in that of `CCOP(=O)(CCc1cn(-c2ccccc2)nc1O)OCC`, 121 to 122 °C.
In the case of `CC(C)N(Cc1c(-c2ccccc2)sc(N2C(=O)c3ccccc3C2=O)c1C(=O)c1ccc(Cl)cc1)C(C)C` it was 168 to 170 °C.
In the case of `Clc1cc(Nc2cc(C3CC3)n[nH]2)nc(Sc2ccc3ccccc3c2)n1` it was 118 to 120 °C; in that of `COc1ccc(-c2nc(-c3ccc(OC)cc3)nc(-c3ccccc3O)n2)cc1`, 205 to 206 °C; in that of `Cc1ccc(C2(c3ccc(C)cc3)OC(=O)N3CCN(C(=O)Nc4ccc(F)cc4F)CC32)cc1` (centres undefined), 120 to 122 °C.
As for `Cc1noc(C)c1-c1nn(Cc2ccccc2)c(=O)c2ccccc12`, the melting point was 186 to 188 °C.
In the case of `COc1ncnc(-c2cc([N+](=O)[O-])c(F)cc2F)c1Cl` it was 84 to 88 °C; in that of `CCOCCO[C@@H]1c2ccn3c(C)c(C)nc3c2N[C@H](c2ccccc2)[C@H]1OC(=O)OCCCC(Cl)CC` (some centres undefined), 124 °C.
In the case of `CCn1ncc2c(NCc3cccnc3)c3ccccc3nc21` it was 282 to 284 °C.
`CC1(C)CCc2c(N3CCOCC3)nc3sc4c(NCc5cccnc5)ncnc4c3c2C1`: the melting point was found to be 249 °C.
In the case of `CCOC(=O)C1CCc2[nH]c3ccccc3c2C1` (centres undefined) it was 95 to 96 °C; in that of `CC1CCc2c(Cl)c(Cl)cc3c(=O)c(C(=O)O)cn1c23` (centres undefined), 269 to 271 °C.
Turning to `NC(=O)C1CCCC(C(=O)O)C1` (centres undefined), the melting point was in the range of 102 to 128 °C.
In the case of `CCC(C)N(C)C(=O)c1cc(-c2ccccc2F)c2ccccc2n1` (centres undefined) it was 86 °C.
In the case of `CC(C)(C)c1cc(Cc2nc3ccccc3o2)cc(C(C)(C)C)c1O` it was 94 to 96 °C; in that of `CC(C)(Cl)c1ccc(-c2ccc(C(C)(C)Cl)cc2)cc1`, 96 to 98 °C.
In the case of `CCC1CC(=O)N(Cc2cccc(C(=O)NC3CCCC3)c2)N=C1c1ccc(OC)c(OC)c1` (centres undefined) it was 54 °C; in that of `O=C(O)c1ccc(OS(=O)(=O)C(F)(F)F)cc1`, 178 to 180 °C; in that of `COc1ccc(-c2[nH]c(-c3cccc4ccccc34)nc2C(=O)Nc2nccs2)cc1`, 198 to 200 °C.
The compound `COc1ccc(NC(=O)c2cccnc2)c2c1oc1ccccc12` gave a melting point of 200 to 203 °C.
On to `CCCCCc1ccc(NC2=NCCS2)cc1`, for which the melting point fell in the range of 77 to 78 °C.
In the case of `Cc1cc(O)n2nc(CN=[N+]=[N-])nc2n1` it was 193 to 194 °C.
`CCOC1CCC(=O)N1S(=O)(=O)c1ccc(OC)cc1` (centres undefined): the melting point is 112 to 113 °C.
In the case of `COC1CC(N2CCCC2)C(N(C)C(=O)COc2cccc(F)c2)CC1OC` (centres undefined) it was 119 to 121 °C.
In the case of `CCCCCS(=O)(=O)NC(=O)c1ccc2[nH]cc(Cc3ccc(Cl)cc3Cl)c2c1` it was 157 to 158 °C.
In the case of `COc1ccccc1C1=C(C#N)C(c2cccc3nonc23)c2c[nH]nc2N1` (centres undefined), the melting point was found to be 180 °C.
In the case of `CCc1nc2c(N)nc3cc(OCc4ccc(C(F)(F)F)o4)ccc3c2s1` it was 152 to 154 °C; in that of `CCOCc1nc2c(N)nc(C)c(C)c2n1NCCCS(C)(=O)=O`, 150 to 155 °C; in that of `CCc1ccc(-n2nc(Cl)cc2-c2ccc(S(C)(=O)=O)cc2)cc1N`, 158 to 160 °C.
`O=C(NC(=O)c1ccccc1)NC1CCC(=O)c2sccc21` (centres undefined) showed a melting point of 187 to 190 °C.
In the case of `COc1ccc(C(=O)Sc2ccc(C(=O)O)cc2)cc1C(C)(C)C` it was 220 to 221 °C.
In the case of `O=C(Nc1ccccc1Cl)Nc1nc(=O)n(CC2CC2)cc1F` it was 197 to 199 °C.
In the case of `CC[C@@H](C)[C@H]1c2ccccc2-c2ccccc2N1S(=O)(=O)c1ccc(O)cc1` (relative stereo) it was 115 to 118 °C; in that of `COc1cc2[nH]c(=O)c3ccccc3c2cc1OC`, 253 to 255 °C; in that of `CCOc1ccc(Nc2ncc(C(=O)O)c(=O)[nH]2)cc1`, 250 to 252 °C.
Compound `Cc1ccn(-c2cc(Nc3c(Cl)cc(Cl)cc3Cl)nc(C)n2)n1` displayed a melting point of 245 to 247 °C.
Compound `Cc1nc(S(=O)(=O)Cc2ccccc2)nc(C)c1Br` showed a melting point of 138 to 139 °C.
In the case of `CCN(CC)CC1CCCCN1CCNC(=O)N1c2ccc(Cl)cc2C(=O)Nc2cccnc21` (centres undefined) it was 138 to 140 °C; in that of `CCCCCS(=O)(=O)NC(=O)/C(C)=C/c1ccc(OCCOC)cc1Oc1ncc(C(F)(F)F)cc1Cl`, 108 to 111 °C; in that of `C=CCOc1ccc(C(=O)Oc2ccc(C(=O)O)cc2)cc1C12CC3CC(CC(C3)C1)C2`, 260 to 261 °C.
In the case of `CCOC(=O)C(NC(=O)Nc1c(F)cc(F)cc1CCc1cc(C(C)(C)C)c(O)c(C(C)(C)C)c1)c1ccccc1` (centres undefined) it was 162 to 164 °C; in that of `O=C(O)c1cc2c(cn1)[nH]c1ccccc12`, 307 to 309 °C.
In the case of `NC(=O)CCN1CCCCC1` it was 105 to 107 °C; in that of `O=C1N=c2cc(Cl)c(Cl)cc2=NC1=O`, over 400 °C; in that of `O=C1CC(c2cccc(-n3ccnn3)c2)=Nc2ccc(-c3ccc(F)cc3)cc2N1`, 218 to 220 °C.
In turn, `Cc1noc(NS(=O)(=O)c2sccc2-c2ccccc2)c1Br` yielded a melting point of 105 to 107 °C.
For the compound `CCOC(=O)c1cnc2ccc(F)cc2c1Cl`, the melting point fell in the range of 55 to 57 °C.
In the case of `O=C1CC(CCN2CCC(c3c[nH]c4ccccc34)CC2)c2ccccc2N1` (centres undefined) it was 115 to 117 °C; in that of `COc1ccc(C(O)c2ccccc2)cc1OC1CCCC1` (centres undefined), 82.5 to 83 °C; in that of `COC1=C(C)C(=O)OC1O` (centres undefined), 79 °C.
`COc1cc2cc(-c3ccccc3C)sc2c(Cl)c1Cl`: the melting point fell in the range of 156 to 157 °C.
In the case of `COc1ccc([N+](=O)[O-])c(Br)c1OC` it was 120 to 122 °C.
In turn, `COc1ccc(N2CCC(c3c(N)nc(N)[nH]c3=O)CC2)cc1` gave a melting point of 308 °C.
Compound `COC(=O)C1=C(C)NC(c2c(F)cc(F)cc2F)=NC1c1ccc(F)cc1Cl` (centres undefined) gave a melting point of 112 to 114 °C.
In the case of `CCCNC(=O)NCCCCN1CCC(CNC(=O)c2cc(Cl)c(N)cc2OC)CC1` it was 114 to 115 °C.
Take `COc1c([N+](=O)[O-])ncn1C`: the melting point was in the range of 140 to 141 °C.
In the case of `COCCOc1cc(Cc2cnc(N)nc2N)cc2cccnc12` it was 253 to 255 °C; in that of `CC(C)Oc1cc(OC(C)C)c(C(=O)O)c(C(F)(F)F)n1`, 147 to 150 °C; in that of `O=C(CO)NC1CCC(CC2CCC(NC(=O)CO)CC2)CC1` (centres undefined), 149 to 151 °C.
Take `Cc1cc2ncnn2nc1OCC(C)(C)CCS(N)(=O)=O`: the melting point was 214 to 215 °C.
In the case of `CC(C)(C)C(NC(=O)c1ccc(Cl)cc1)Nc1c(Nc2cccnc2)c(=O)c1=O` (centres undefined), the melting point lay within 257 to 258 °C.
In the case of `CCNC1=NN(c2ccc(Cl)cc2)C(C)C1` (centres undefined) it was 57 to 58 °C.

Source of the values: a melting point compilation (Tetko et al.; mined from patent text by program, amines drawn as free bases though some values may be those of a salt).
